Source: ChEMBL document CHEMBL3813616, “Discovery of novel 7-azaindoles as PDK1 inhibitors” (Bioorg Med Chem Lett, 2016)

Columns and labels:
[1] = biological target: T1, Serine/threonine-protein kinase 3 (Homo sapiens) (UniProt Q13188); assay: Inhibition of human MST2 (2 to 491 residues) assessed as enzyme activity at 1 uM using 33P ATP by radioactive filter binding assay; parameters: scale not given: the % may be the effect or the level left
T1 sequence (whole entry): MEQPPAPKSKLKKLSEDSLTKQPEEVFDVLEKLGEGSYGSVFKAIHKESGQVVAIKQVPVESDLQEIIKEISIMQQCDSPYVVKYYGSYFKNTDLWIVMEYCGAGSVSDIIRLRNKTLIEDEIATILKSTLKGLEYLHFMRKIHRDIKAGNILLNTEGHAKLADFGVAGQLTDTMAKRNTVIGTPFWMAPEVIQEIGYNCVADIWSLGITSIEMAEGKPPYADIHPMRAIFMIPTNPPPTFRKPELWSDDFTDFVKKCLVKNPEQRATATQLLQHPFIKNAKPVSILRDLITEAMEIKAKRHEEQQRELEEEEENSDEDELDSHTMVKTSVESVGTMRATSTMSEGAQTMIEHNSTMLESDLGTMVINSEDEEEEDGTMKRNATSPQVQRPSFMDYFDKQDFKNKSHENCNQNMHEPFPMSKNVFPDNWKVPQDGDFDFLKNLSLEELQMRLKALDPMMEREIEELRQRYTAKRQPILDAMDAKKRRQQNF

[2] = biological target: Tyrosine-protein kinase SYK (Homo sapiens) (UniProt P43405); assay: Inhibition of human SYK (1 to 635 residues) assessed as enzyme activity at 1 uM using 33P ATP by radioactive filter binding assay; parameters: scale not given: the % may be the effect or the level left
[3] = biological target: Serine/threonine-protein kinase pim-1 (Homo sapiens) (UniProt P11309); assay: Inhibition of human PIM1 (2 to 313 residues) assessed as enzyme activity at 1 uM using 33P ATP by radioactive filter binding assay; parameters: scale not given: the % may be the effect or the level left
[4] = biological target: Mitogen-activated protein kinase 8 (Homo sapiens) (UniProt P45983); assay: Inhibition of human JNK1alpha1 assessed as enzyme activity at 1 uM using 33P ATP by radioactive filter binding assay; parameters: scale not given: the % may be the effect or the level left
[5] = biological target: T2, 3-phosphoinositide-dependent protein kinase 1 (Homo sapiens) (UniProt O15530); assay: Inhibition of human PDK1 (52 to 556 residues) assessed as enzyme activity at 1 uM using 33P ATP by radioactive filter binding assay; parameters: scale not given: the % may be the effect or the level left
T2 sequence (whole entry): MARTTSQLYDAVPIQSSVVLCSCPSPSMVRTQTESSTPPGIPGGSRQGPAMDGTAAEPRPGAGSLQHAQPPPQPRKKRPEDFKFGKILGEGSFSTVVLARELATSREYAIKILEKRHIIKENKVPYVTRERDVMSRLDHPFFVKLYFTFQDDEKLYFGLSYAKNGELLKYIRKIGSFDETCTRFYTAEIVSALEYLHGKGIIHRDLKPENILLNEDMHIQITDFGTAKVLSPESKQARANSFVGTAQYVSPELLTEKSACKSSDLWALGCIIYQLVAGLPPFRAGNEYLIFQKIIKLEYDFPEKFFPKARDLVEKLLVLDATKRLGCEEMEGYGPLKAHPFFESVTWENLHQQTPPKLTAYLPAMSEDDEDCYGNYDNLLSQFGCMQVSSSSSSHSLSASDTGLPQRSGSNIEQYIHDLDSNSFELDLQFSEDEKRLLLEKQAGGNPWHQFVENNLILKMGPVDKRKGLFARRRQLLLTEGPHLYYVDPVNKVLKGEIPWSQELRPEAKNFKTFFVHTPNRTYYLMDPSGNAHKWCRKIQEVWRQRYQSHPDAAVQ

[6] = biological target: Maternal embryonic leucine zipper kinase (Homo sapiens) (UniProt Q14680); assay: Inhibition of human MELK (2 to 651 residues) assessed as enzyme activity at 1 uM using 33P ATP by radioactive filter binding assay; parameters: scale not given: the % may be the effect or the level left
[7] = biological target: MAP/microtubule affinity-regulating kinase 3 (Homo sapiens) (UniProt P27448); assay: Inhibition of human MARK3 (2 to 729 residues) assessed as enzyme activity at 1 uM using 33P ATP by radioactive filter binding assay; parameters: scale not given: the % may be the effect or the level left
[8] = biological target: Ribosomal protein S6 kinase beta-1 (Homo sapiens) (UniProt P23443); assay: Inhibition of human S6K1 (1 to 421 residues) assessed as enzyme activity at 1 uM using 33P ATP by radioactive filter binding assay; parameters: scale not given: the % may be the effect or the level left
[9] = biological target: T3, 3-phosphoinositide-dependent protein kinase 1 (Homo sapiens, UniProt O15530); assay: Inhibition of human His6-tagged PDK1 using biotinylated PDKtide as substrate after 60 mins by topcount method
T3 sequence (O15530 whole entry): T2 sequence (whole entry)

[10] = biological target: Casein kinase I isoform delta (Homo sapiens) (UniProt P48730); assay: Inhibition of human CK1 delta (1 to 415 residues) assessed as enzyme activity at 1 uM using 33P ATP by radioactive filter binding assay; parameters: scale not given: the % may be the effect or the level left
[11] = biological target: Protein kinase C alpha type (Homo sapiens) (UniProt P17252); assay: Inhibition of human PKCalpha (1 to 672 residues) assessed as enzyme activity at 1 uM using 33P ATP by radioactive filter binding assay; parameters: scale not given: the % may be the effect or the level left
[12] = biological target: Serine/threonine-protein kinase PLK1 (Homo sapiens) (UniProt P53350); assay: Inhibition of human PLK1 (1 to 603 residues) assessed as enzyme activity at 1 uM using 33P ATP by radioactive filter binding assay; parameters: scale not given: the % may be the effect or the level left
[13] = biological target: Ephrin type-A receptor 2 (Homo sapiens) (UniProt P29317); assay: Inhibition of human EPHA2 (591 to 976 residues) assessed as enzyme activity at 1 uM using 33P ATP by radioactive filter binding assay; parameters: scale not given: the % may be the effect or the level left
[14] = biological target: Serine/threonine-protein kinase Nek6 (Homo sapiens) (UniProt Q9HC98); assay: Inhibition of human NEK6 (8 to 313 residues) assessed as enzyme activity at 1 uM using 33P ATP by radioactive filter binding assay; parameters: scale not given: the % may be the effect or the level left
[15] = biological target: Calcium/calmodulin-dependent protein kinase type 1 (Homo sapiens) (UniProt Q14012); assay: Inhibition of human CAMK1 (2 to 369 residues) assessed as enzyme activity at 1 uM using 33P ATP by radioactive filter binding assay; parameters: scale not given: the % may be the effect or the level left
[16] = biological target: Serine/threonine-protein kinase PAK 6 (Homo sapiens) (UniProt Q9NQU5); assay: Inhibition of human PAK6 (2 to 681 residues) assessed as enzyme activity at 1 uM using 33P ATP by radioactive filter binding assay; parameters: scale not given: the % may be the effect or the level left
[17] = biological target: Tyrosine-protein kinase CSK (Homo sapiens) (UniProt P41240); assay: Inhibition of human CSK (1 to 450 residues) assessed as enzyme activity at 1 uM using 33P ATP by radioactive filter binding assay; parameters: scale not given: the % may be the effect or the level left
[18] = biological target: MAP kinase-interacting serine/threonine-protein kinase 2 (Homo sapiens) (UniProt Q9HBH9); assay: Inhibition of human MNK2alpha (2 to 465 residues) assessed as enzyme activity at 1 uM using 33P ATP by radioactive filter binding assay; parameters: scale not given: the % may be the effect or the level left
[19] = biological target: Dual specificity tyrosine-phosphorylation-regulated kinase 1A (Homo sapiens) (UniProt Q13627); assay: Inhibition of human DYRK1A (1 to 502 residues) assessed as enzyme activity at 1 uM using 33P ATP by radioactive filter binding assay; parameters: scale not given: the % may be the effect or the level left
[20] = biological target: Vascular endothelial growth factor receptor (Homo sapiens) (UniProt P17948+P35916+P35968); assay: Inhibition of human VEGFR assessed as enzyme activity at 1 uM using 33P ATP by radioactive filter binding assay; assay type: protein assay; parameters: scale not given: the % may be the effect or the level left

Activity [1] | Activity [2] | Activity [3] | Activity [4] | Activity [5] | Activity [6] | Activity [7] | Activity [8] | IC50 [9] | Activity [10] | Activity [11] | Activity [12] | Activity [13] | Activity [14] | Activity [15] | Activity [16] | Activity [17] | Activity [18] | Activity [19] | Activity [20] | SMILES
-33% | -9% | -61% | -6% | -54% | -89% | -58% | -77% | 1100 nM | -26% | -18% | -6% | 17% | -11% | -3% | 3% | -5% | -15% | -90% | – | CCCCc1cc(-c2c[nH]c3ncccc23)nc(N)n1
-86% | -69% | -98% | -41% | -92% | -85% | -95% | -84% | 84 nM | -72% | -55% | -41% | -53% | -16% | -60% | -50% | -24% | -42% | -92% | -97% | CCCCc1cc(-c2c[nH]c3ncc(-c4cnn(C5CCNCC5)c4)cc23)nc(N)n1
-63% | – | -85% | -31% | -80% | -81% | -89% | -66% | 58 nM | -67% | -73% | -41% | -16% | -4% | -49% | -5% | 6% | -49% | -94% | -97% | CCc1cc(-c2c[nH]c3ncc(-c4cnn(C5CCNCC5)c4)cc23)nc(N)n1
-20% | 12% | -62% | -5% | -12% | -64% | -59% | -71% | 5900 nM | -74% | -28% | -26% | 25% | -7% | -6% | -27% | 0% | -35% | -95% | -44% | Nc1nccc(-c2c[nH]c3ncccc23)n1 [MERIOLIN 1]
